Test results: PubChem BioAssay AID1996
≈ marks a conversion by molar mass, not a printed value.

Conditions: buffer; pH 7.4; 200.0 µM

Row | Compound | solubility kinetic
1 | COc1ccc(CNC(=O)COC(=O)/C=C/c2ccc(Cl)cc2)cc1 | < 0.8 µg/mL
2 | Cc1ccc(NC(=O)CN(C)Cc2c(O)ccc3ccccc23)cc1 | 23.7 µg/mL (≈ 70.9 µM)
3 | CCC(NC(=O)c1ccccc1NC(=O)C(C)(C)C)C(=O)N1CC(C)OC(C)C1 (centres undefined) | > 60.5 µg/mL
4 | Brc1ccc2ncnc(NCc3cccnc3)c2c1 | 34.3 µg/mL (≈ 109 µM)
5 | CC(=O)N(Cc1ccc(Cl)cc1)c1cnccn1 | > 39.3 µg/mL
6 | Oc1ccc(C=NCCc2ccccc2)cc1 | > 33.8 µg/mL
7 | COc1ccc(C(=O)NCC(=O)OCC(=O)NC2CCCCCC2)cc1OC | > 58.9 µg/mL
8 | CCOC(=O)c1nc(-c2ccc(OC)c(OC)c2)no1 | 40.8 µg/mL (≈ 147 µM)
9 | O=C(COC(=O)/C=C/c1ccccc1[N+](=O)[O-])NC(=O)NC1CCCC1 | 7.7 µg/mL (≈ 21.3 µM)
10 | COCc1c(C(=O)OCC(=O)c2ccc[nH]2)oc2ccccc12 | 11.1 µg/mL (≈ 35.4 µM)
11 | Cc1cc(Cl)ccc1OC(C)C(=O)NC(C)C1CCCO1 (centres undefined) | > 46.8 µg/mL
12 | Cc1nccn1C[C@@H]1CCc2c(c3ccccc3n2C)C1=O | 32.5 µg/mL (≈ 111 µM)
13 | O=C(Nc1ccccc1[N+](=O)[O-])C1(c2ccccc2)CCOCC1 | 42.3 µg/mL (≈ 130 µM)
14 | CCc1cc2c(Nc3ccccc3O)nc(C)nc2s1.Cl | < 0.2 µg/mL
15 | Cc1cc(NC(=O)COC(=O)c2ccccc2O)no1 | 7.9 µg/mL (≈ 28.6 µM)
16 | CCc1noc(C)c1C(=O)OCC(=O)Nc1cccc(C)c1 | 20.4 µg/mL (≈ 67.5 µM)
17 | CC1=C(C(=O)OC(C)C)C(c2ccc(O)cc2)NC(=O)N1 (centres undefined) | > 43.5 µg/mL
18 | O=C(Nc1ccon1)Nc1cc(Cl)ccc1Cl | 1.4 µg/mL (≈ 5.15 µM)
19 | CN(C)c1ccc(C(=O)NCC(c2cccs2)N2CCOCC2)cc1 (centres undefined) | 49.3 µg/mL (≈ 137 µM)
20 | Cl.Nc1cccc(Nc2ncnc3ccccc23)c1 | 31.9 µg/mL
21 | O=C1CCCC(=O)C1C1c2ccccc2CCN1C(=O)CCl (centres undefined) | > 48 µg/mL
22 | Cc1ccc(NC(=O)COC(=O)Cn2cnc3c2c(=O)n(C)c(=O)n3C)cc1 | > 57.8 µg/mL
23 | Cc1nc(-c2ccc(NC(=O)C(C)(C)C)cc2)c(-c2ccccc2)o1 | 0.8 µg/mL (≈ 2.39 µM)
24 | O=C(c1ccccc1)c1cc2cc(Cl)ccc2[nH]1 | < 0.5 µg/mL
25 | NS(=O)(=O)c1cccc(NC(=O)C2CC(=O)N(Cc3ccco3)C2)c1 (centres undefined) | > 54.5 µg/mL

The next lines start with the values.

Row | solubility kinetic | Compound
26 | > 44.6 µg/mL | Cc1ccc(S(=O)(=O)N2CCC3(CC2)OCCO3)cc1
27 | 40.1 µg/mL (≈ 143 µM) | COC(=O)c1ccccc1NC(=S)N1CCOCC1
28 | > 48.5 µg/mL | CC(=O)C1=C(O)C(=O)N(c2ccc(O)cc2)C1c1ccc(C)cc1 (centres undefined)
29 | > 57.7 µg/mL | O=C(Nc1cccc(O)c1)c1cccc(S(=O)(=O)Nc2cccc(O)c2)c1
30 | > 34.7 µg/mL | Cc1ccc(F)cc1NC(=O)c1cnccn1
31 | > 43.7 µg/mL | CCCCn1c(N2CCCC2)nc2c1c(=O)[nH]c(=O)n2C
32 | 39.7 µg/mL (≈ 132 µM) | COc1ccc2[nH]c(C(=O)NCCN3CCCCC3)cc2c1
33 | 7.2 µg/mL (≈ 23.6 µM) | Cc1cc(C)c(S(=O)(=O)c2ccccc2C(C)C)c(=O)[nH]1
34 | 13.1 µg/mL (≈ 53 µM) | Cc1ccc(CSc2nc(N)cc(=O)[nH]2)cc1
35 | > 55.9 µg/mL | COC(=O)C1(C(C[N+](=O)[O-])c2ccc(C)cc2)C(=O)NCC1c1ccco1 (centres undefined)
36 | 18.6 µg/mL (≈ 51 µM) | COc1ccc(S(=O)(=O)NCCc2c[nH]c3ccc(Cl)cc23)cc1
37 | < 0.2 µg/mL | Cc1cc(C)c2c(n1)sc1c(=O)n(CC(=O)c3ccccc3)cnc12
38 | 1.6 µg/mL (≈ 5.43 µM) | Cc1ccc(NC(=O)N2CCCC(c3ccccc3)C2)cc1 (centres undefined)
39 | > 46.1 µg/mL | O=C(CSc1ccccc1C(=O)O)NC1CCCCCC1
40 | 35.1 µg/mL (≈ 121 µM) | CC(SCc1ccccc1)C(=O)Nc1ccccc1F (centres undefined)
41 | > 55.1 µg/mL | CCN1CCN(C(=S)NC(=O)c2cc(OC)c(OC)c(OC)c2)CC1
42 | 17.6 µg/mL (≈ 69.8 µM) | O=[N+]([O-])c1ccc(CNc2cccc(F)c2)s1

Row | solubility kinetic | Compound
43 | 0.5 µg/mL (≈ 1.45 µM) | COc1ccc(NC(=O)/C=C/c2cc(OC)c(OC)c(OC)c2)cn1
44 | 5.2 µg/mL (≈ 10.5 µM) | CCN(CC)S(=O)(=O)c1ccc(N2CCOCC2)c(NC(=O)c2cc(Cl)c3c(c2)OCO3)c1
45 | 41.5 µg/mL (≈ 135 µM) | CN1CCc2c(sc(N)c2C(=O)c2ccc(Cl)cc2)C1
46 | > 36.3 µg/mL | Cc1c(NCc2ccncc2)cccc1C(=O)O
47 | 29.9 µg/mL (≈ 147 µM) | O=C(CCc1ccccc1)N1CCCC1
48 | > 53.4 µg/mL | Cc1nn(C)c(C)c1NC(=O)COc1ccc(F)cc1Br
49 | > 35.7 µg/mL | CCOC(=O)c1cnc(SCC#N)nc1N
50 | 10.9 µg/mL | COc1ccc(C(=O)n2c(N)nc3ccccc32)cc1OC.Cl
51 | 39.9 µg/mL (≈ 111 µM) | CC(=O)N(CCS(=O)(=O)c1ccc(Cl)cc1)Cc1cccs1
52 | 45.9 µg/mL (≈ 138 µM) | CC(C)c1nc2sc3c(=O)[nH]c(=S)[nH]c3c2c2c1CCCC2
53 | > 41.3 µg/mL | Cc1ccc(NC(=O)CNC(=O)c2cccs2)nc1
54 | 1.2 µg/mL (≈ 3.41 µM) | CCCCn1c(-c2cccs2)nc2oc3ccccc3c(=O)c2c1=O
55 | > 55.6 µg/mL | Cc1ccc(CNC(=O)COC(=O)CN2C(=O)C3CC=CCC3C2=O)cc1 (centres undefined)
56 | 32.5 µg/mL (≈ 97.1 µM) | Cc1cccc(OCC(=O)OCC(=O)Nc2ccc(Cl)cn2)c1
57 | > 44.8 µg/mL | COCCCNC(=O)CN1C(=O)c2cccc3cccc1c23
58 | < 0.4 µg/mL | COc1ccc2oc(=Nc3cc(F)ccc3F)c(C(N)=O)cc2c1
59 | 22.6 µg/mL (≈ 75 µM) | Cc1csc(SCC(=O)NC(=O)NCCC(C)C)n1
